From patent US20210003596A1, “CHEMILUMINESCENT ANDROSTENEDIONE CONJUGATES” (Siemens Healthcare Diagnostics Inc., priority 2017, published 2021)

Experiments:
Assay in all cases: Competitive chemiluminescent immunoassay (ADVIA Centaur), binding of A4-AE conjugates to antibody on solid phase
Parameters in all cases: species or system sheep; key: a “+” indicates appreciable binding of the specified A4-AE conjugate to the specified antibody; a “−” indicates no appreciable binding was observed
[1] = system: monoclonal androstenedione antibody 3H10; settings: binding of A4-AE conjugate to 3H10 antibody, chemiluminescence; lite reagent 20 ng/mL tracer
Experimental: (§1) Evaluation of A4-AE conjugates was performed using the ADVIA Centaur family of immunoassay analyzers (available from Siemens Healthcare Diagnostics Inc., Tarrytown, N.Y.) using a competitive assay format which utilizes a solid phase reagent and a lite reagent. The lite reagent comprises 20 ng/mL of an A4-AE tracer compound. The solid reagent comprises superparamagnetic beads (Dynabeads® M-270 Streptavidin available from ThermoFisher Scientific) labeled with biotinylated monoclonal anti-A4 antibody. Biotinylated sheep monoclonal androstenedione antibodies 3C3, 3H10, or 4G8 (available from Bioventix, UK) are introduced to the streptavidin coated superparamagnetic beads in order to produce solid phase particles attached to the antibody. Solid phase particles mixed with A4-AE in the absence of A4, results in solid phase binding complexes with the A4-AE compounds. When the […], competition for formation of a binding complex at each antibody occurs between A4 and A4-AE conjugates. […] Therefore, an increase in androstenedione concentration in measured samples correlates with a decrease in chemiluminescence of separated and washed solid phase particles binding complexes. Chemiluminescence of the separated solid phase particle binding complexes is induced by addition of an acidic solution (0.5% Peroxide/0.45% Nitric Acid (vol/vol)) followed by a basic solution (0.25N […]/0.45% ARQUAD® 16-50 (w/v)) and measured. Reagent volumes, concentrations, and assay parameters were otherwise identical in each experiment other than variation of the A4-AE tracer conjugate measured. Samples of androstenedione used in the lite reagent were prepared using a human serum albumin-based matrix (available from Bioresource Technology, Inc.) with the androstenedione sample concentrations shown in FIGS. 2A-2D (ng/mL).
(§2) Chemiluminescence was monitored for a variety of A4-AE conjugates. Table 2 below and the corresponding FIGS. 2A-2D summarize the results of chemiluminescent experiments on several A4-AE conjugates which may be synthesized as described in the indicated Example number. In Table 3 a “+” indicates appreciable binding of the specified A4-AE conjugate to the specified antibody and a “−” indicates no appreciable binding was observed.

[2] = system: monoclonal androstenedione antibody 4G8; settings: binding of A4-AE conjugate to 4G8 antibody, chemiluminescence; lite reagent 20 ng/mL tracer
Experimental: as §1, §2

[3] = system: monoclonal androstenedione antibody 3C3; settings: binding of A4-AE conjugate to 3C3 antibody, chemiluminescence; lite reagent 20 ng/mL tracer
Experimental: as §1, §2

| Compound | 3H10 [1] | 4G8 [2] | 3C3 [3] |
| --- | --- | --- | --- |
| Cc1cc(C(=O)NCCC[N+](C)(CCCNC(=O)COC[C@]23CCC(=O)C=C2CCC2C3CC[C@]3(C)C(=O)CCC23)CCCS(=O)(=O)[O-])cc(C)c1OC(=O)c1c2ccccc2[n+](CCCS(=O)(=O)[O-])c2ccccc12 (stereo partly drawn) [compound 3, A4(19)-CME-NH-Z-ZAE] | + | + | − |
| Cc1cc(C(=O)NCCC[N+](C)(CCCNC(=O)CON=C2CCC3C4CCC5=CC(=O)CCC5(C)C4CCC23C)CCCS(=O)(=O)[O-])cc(C)c1OC(=O)c1c2ccccc2[n+](CCCS(=O)(=O)[O-])c2ccccc12 (stereo not drawn) [compound 2, A4(17)-CMO-Z-ZAE] | − | − | − |
| Cc1cc(C(=O)NCCC[N+](C)(CCCNC(=O)OC2CC3C4CCC(=O)C4(C)CCC3C3(C)CCC(=O)C=C23)CCCS(=O)(=O)[O-])cc(C)c1OC(=O)c1c2ccccc2[n+](CCCS(=O)(=O)[O-])c2ccccc12 (stereo not drawn) [compound 5, A4(6β)-carbamate-NH-Z-ZAE] | − | − | − |
| Cc1cc(C(=O)NCCC[N+](C)(CCCNC(=O)CCSC2CC3=CC(=O)CCC3(C)C3CCC4(C)C(=O)CCC4C23)CCCS(=O)(=O)[O-])cc(C)c1OC(=O)c1c2ccccc2[n+](CCCS(=O)(=O)[O-])c2ccccc12 (stereo not drawn) [compound 6, A4(7α)-CETE-NH-Z-ZAE] | + | + | + |
| A4(3)-CMO-Z-ZAE [compound 1] | + | − | + |
| Cc1cc(C(=O)NCCC[N+](C)(CCCNC(=O)CCC(=O)OC2CC3C4CCC(=O)C4(C)CCC3C3(C)CCC(=O)C=C23)CCCS(=O)(=O)[O-])cc(C)c1OC(=O)c1c2ccccc2[n+](CCCS(=O)(=O)[O-])c2ccccc12 (stereo not drawn) [compound 4, A4(6β)-hemisuccinate-NH-Z-ZAE] | + | + | + |
